Laboratory results taken from patent US20240262842A1, “SMALL MOLECULE INHIBITORS OF KRAS G12C MUTANT” (Merck Sharp & Dohme LLC, priority 2021, published 2024).
Like-named read-outs stand apart in the source and are kept apart here.

Columns and labels:
[1] = biological target: T1, interaction between GMPPNP-bound recombinant K-Ras4B G12C mutant protein and cRAF RAS-binding domain (cRAF-RBD) (Homo sapiens, UniProt P01116, G12C); assay: Inhibitory activity on interaction between KRAS G12C and cRAF (Alpha technology)
T1 construct: His-tag (N)
T1 sequence (P01116 with tags, fused parts or gaps isoform P01116-2 G12C): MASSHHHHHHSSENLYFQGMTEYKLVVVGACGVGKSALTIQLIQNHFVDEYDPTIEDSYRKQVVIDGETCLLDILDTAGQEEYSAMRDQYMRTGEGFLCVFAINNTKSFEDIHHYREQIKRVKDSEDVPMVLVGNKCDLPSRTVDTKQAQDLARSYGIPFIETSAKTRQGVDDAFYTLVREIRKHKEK
Description: Interaction between recombinant K-Ras4B G12C mutant protein (amino acids 1-169, SEQ ID NO:2) and cRAF RAS-binding domain (cRAF-RBD, amino acids 50-132, Jena Biosciences GmbH) was measured using Alpha technology (PerkinElmer Inc.).
Recombinant KRAS G12C protein with an N-terminal His-tag was expressed in E. coli and purified by affinity chromatography. To prepare GTP-bound form and GDP-bound form of KRAS G12C protein, 50 μM KRAS G12C protein was incubated with 1 mM GMPPNP (Guanosine-5′-[(β,γ)-imido]triphosphate, Tetralithium salt) (Jena Bioscience GmbH) and 1 mM GDP, respectively, in a loading buffer (20 mM Tris-HCl (pH 7.5), 50 mM NaCl, 1 mM DTT and 2.5 mM EDTA) for 1 hour on ice. After the incubation, MgCl2 was added to a final concentration of 10 mM, followed by incubation at room temperature for 30 minutes. The mixture was allowed to pass through a NAP-5 column to remove free nucleotides and purified, and the resultant nucleotide-bound KRAS G12C protein was used for compound evaluation.
For the measurement of the inhibitory activity of compounds on interaction between KRAS G12C and cRAF-RBD, GMPPNP-bound KRAS G12C protein was incubated with various concentrations of compound in a reaction buffer (20 mM Tris-HCl (pH 7.5), 100 mM NaCl, 1 mM MgCl2, 1 mM TCEP, 0.1% Tween 20) at 25° C. for 1 hour. After the incubation, recombinant cRAF-RBD and Alpha detection reagents were added and incubated at room temperature for 1.5 hours for binding. Interaction of KRAS G12C and cRAF-RBD was monitored by measuring Alpha signal. Inhibition % was calculated using the signal from the reaction without test compound (DMSO control) as 0% inhibition and the signal from the reaction using GDP-bound KRAS G12C in place of GMPPNP-bound KRAS G12C as 100% inhibition. IC50 values were calculated from dose titration curve using curve fitting by XLfit software (IDBS).

MIA PaCa-2 cells = assay: Growth inhibition activity on KRAS-G12C mutant cell line (CellTiter-Glo 3D); assay type: cell-based, human; conditions: MIA PaCa-2, 3-day culture with compound
Description: MIA PaCa-2 cells (given by Sumitomo Dainippon Pharma Co., Ltd.), which are a KRAS-G12C mutant human pancreas cancer cell line, were suspended in a 10% fetal bovine serum-containing RPMI1640 medium (manufactured by Fujifilm Wako Pure Chemical Corporation). The cell suspension was seeded into each well of a 384-well U bottom microplate and cultured in an incubator containing 5% CO2 gas at 37° C. for 1 day. The compounds obtained in the “Preparation of Compounds” section were used as test compounds and were dissolved in DMSO, respectively, and each test compound was diluted with DMSO to give a concentration 500 times the final concentration. The resultant solution of the test compound in DMSO was diluted with the medium used for suspending cells and added to each well of the cell-culture plate to give a DMSO final concentration of 0.2%, followed by culture in an incubator containing 5% CO2 gas at 37° C. for another 3 days. The cell count after 3-day culture in the presence of the test compound was measured using CellTiter-Glo 3D Reagent (manufactured by Promega Corporation). All wells were added with CellTiter-Glo 3D Reagent and mixed for 10 minutes. 30 minutes after mixing, luminescence was measured by a plate reader. The growth inhibition rate was calculated from the following equation, and the concentration of the test compound at which 50% inhibition was achieved (IC50 (nM)) was determined.
[formula] • T: the emission intensity in a well into which a test compound was added. • C: the emission intensity in a well into which a test compound was not added.

[2] = GMPPNP-bound KRAS G12C incubated with compound 25° C. 1 hour, Table 2, read-out: IC50
[3] = GMPPNP-bound KRAS G12C incubated with compound 25° C. 1 hour, Table 2-1, read-out: IC50
[4] = Homo sapiens, MIA PaCa-2, 72 h, Table 3-1
[5] = IC50, GMPPNP-bound KRAS G12C incubated with compound 25° C. 1 hour, Table 2-1

Row | Compound | IC50 [1, 2] | IC50 (MIA PaCa-2 cells; Table 3) | IC50 [1, 3] | IC50 (MIA PaCa-2 cells; [4]) | IC50 [1, 5]
1 | Cc1nc2c3c(c(C(F)(F)F)cc2n1C)-c1cccn2c(C(=O)c4cc(F)c(NC(=O)/C=C/CNC5(C)COC5)c(F)c4)cc(c12)CCO3 (single isomer, unassigned) [Example 31-2, (E)-N-(4-(9,10-dimethyl-7-(trifluoromethyl)-13,14-dihydro-9H-imidazo[4″,5″:5′,6′]benzo[1′,2′:2,3]oxocino[4,5,6-hi]indolizine-2-carbonyl)-2,6-difluorophenyl)-4-((3-methyloxetan-3-yl)amino)but-2-enamide] | > 6700 nM | 9200 nM |  |  | 
2 | Cc1nc2c3c(c(C(F)(F)F)cc2n1C)-c1cccn2c(C(=O)c4cc(F)c(NC(=O)/C=C/CN(C)C)c(F)c4)cc(c12)CCO3 (single isomer, unassigned) [Example 38-1] | > 6700 nM | 8300 nM |  |  | 
3 | Cc1nc2c3c(c(C(F)(F)F)cc2n1C)-c1cccn2c(C(=O)c4cc(F)c(NC(=O)/C=C/CN(C)C)c(F)c4)cc(c12)CCO3 (single isomer, unassigned) [Example 38-2] | 27 nM | 19 nM |  |  | 
4 | CO[C@H]1CC[C@H](NC/C=C/C(=O)Nc2c(F)cc(C(=O)c3cc4c5c(cccn35)-c3c(C(F)(F)F)cc5c(nc(C)n5C)c3OC(C)C4)cc2F)CC1 (single isomer, unassigned) [Example 42-1, (E)-N-(2,6-difluoro-4-(9,10,13-trimethyl-7-(trifluoromethyl)-13,14-dihydro-9H-imidazo[4″,5″:5′,6′]benzo[1′,2′:2,3]oxocino[4,5,6-hi]indolizine-2-carbonyl)phenyl)-4-(((1r,4r)-4-methoxycyclohexyl)amino)but-2-enamide] | 11 nM | 6 nM |  |  | 
5 | CO[C@H]1CC[C@H](NC/C=C/C(=O)Nc2c(F)cc(C(=O)c3cc4c5c(cccn35)-c3c(C(F)(F)F)cc5c(nc(C)n5C)c3OC(C)C4)cc2F)CC1 (single isomer, unassigned) [Example 42-2, (E)-N-(2,6-difluoro-4-(9,10,13-trimethyl-7-(trifluoromethyl)-13,14-dihydro-9H-imidazo[4″,5″:5′,6′]benzo[1′,2′:2,3]oxocino[4,5,6-hi]indolizine-2-carbonyl)phenyl)-4-(((1r,4r)-4-methoxycyclohexyl)amino)but-2-enamide] | 1100 nM | 450 nM |  |  | 
6 | Cc1nc2c3c(c(C(F)(F)F)cc2n1C)-c1cccn2c(C(=O)c4cc(F)c(NC(=O)/C=C/CNC5(C)CCOC5)c(F)c4)cc(c12)CCO3 (single isomer, unassigned) [Example 52] |  |  | 4.55 nM | 1.44 nM | 
7 | Cc1nc2c3c(c(C(F)(F)F)cc2n1C)-c1cccc2c(C(=O)c4cc(F)c(NC(=O)/C=C/CNC5(C)COC5)c(F)c4)cn(c12)CCN3C (single isomer, unassigned) [Example 54] |  |  |  | 5.39 nM | 22.1 nM
8 | CO[C@H]1CC[C@H](NC/C=C/C(=O)Nc2c(F)cc(C(=O)c3cn4c5c(cccc35)-c3c(C(F)(F)F)cc5c(nc(C)n5C)c3N(C)CC4)cc2F)CC1 (single isomer, unassigned) [Example 55, (E)-N-(2,6-difluoro-4-(8,9,11-trimethyl-6-(tri-fluoromethyl)-8,11,12,13-tetrahydroimidazo[4″,5″: 5′,6′]benzo[1′,2′:5,6][1,4]-diazocino[7,8,1-hi]indole-2-carbonyl)phenyl)-4-(((1r,4r)-4-methoxycyclo-hexyl)amino)but-2-en-amide] |  |  |  | 3.36 nM | 11.7 nM
9 | CO[C@H]1CC[C@H](NC/C=C/C(=O)Nc2c(F)cc(C(=O)c3cn4c5c(cccc35)-c3c(C)cc5c(nc(C)n5C)c3N(C)CC4)cc2F)CC1 (single isomer, unassigned) [Example 62] |  |  |  | 6.91 nM | 17.4 nM
10 | CO[C@H]1CC[C@H](NC/C=C/C(=O)Nc2c(F)cc(C(=O)c3cc4c5c(cccn35)-c3c(C(F)(F)F)cc5c(nc(C)n5C)c3N(C)CC4)cc2F)CC1 (single isomer, unassigned) [Example 63, (E)-N-(2,6-difluoro-4-(9,10,12-trimethyl-7-(tri-fluoromethyl)-9,12,13,14-tetrahydroimidazo-[4″,5″:5′,6′]benzo[1′,2′: 2,3]azocino[4,5,6-hi]-indolizine-2-carbonyl)-phenyl)-4-(((1r,4r)-4-methoxycyclohexyl)-amino)but-2-enamide] |  |  | 14.2 nM | 2.48 nM | 
11 | CO[C@H]1CC[C@H](NC/C=C/C(=O)Nc2c(F)cc(C(=O)c3c(C)c4c5c(cccn35)-c3c(C(F)(F)F)cc5c(nc(C)n5C)c3OCC4)cc2F)CC1 (single isomer, unassigned) [Example 64, (E)-N-(2,6-difluoro-4-(1,9,10-trimethyl-7-(tri-fluoromethyl)-13,14-dihydro-9H-imidazo-[4″,5″:5′,6′]benzo[1′,2′: 2,3]oxocino[4,5,6-hi]-indolizine-2-carbonyl)-phenyl)-4-(((1r,4r)-4-methoxycyclohexyl)-amino)but-2-enamide] |  |  | 14.2 nM | 11 nM | 
12 | Cc1cc2c(nc(C)n2C)c2c1-c1cccc3c(C(=O)c4cc(F)c(NC(=O)/C=C/CNC5(C)COC5)c(F)c4)cn(c13)CCN2C (single isomer, unassigned) [Example 65, (E)-N-(2,6-difluoro-4-(6,8,9,11-tetramethyl-8,11,12,13-tetrahydro-imidazo[4″,5″:5′,6′]benzo-[1′,2′:5,6][1,4]diazocino-[7,8,1-hi]indole-2-carbon-yl)phenyl)-4-((3-methyl-oxetan-3-yl)amino)but-2-enamide] |  |  |  | 95.1 nM | 69.5 nM
13 | CO[C@H]1CC[C@H](NC/C=C/C(=O)Nc2c(F)cc(C(=O)c3cc4c5c(cccn35)-c3c(C)cc5c(nc(C)n5C)c3N(C)CC4)cc2F)CC1 (single isomer, unassigned) [Example 69, (E)-N-(2,6-difluoro-4-(7,9,10,12-tetramethyl-9,12,13,14-tetrahydro-imidazo[4″,5″:5′,6′]benzo-[1′,2′:2,3]azocino[4,5,6-hi]indolizine-2-carbonyl)-phenyl)-4-(((1r,4r)-4-methoxycyclohexyl)-amino)but-2-enamide] |  |  | 19.8 nM | 15.5 nM | 
14 | Cc1nc2c3c(c(C(F)(F)F)cc2n1C)-c1cccn2c(C(=O)c4cc(F)c(NC(=O)/C=C/CNC5(C)CCOCC5)c(F)c4)cc(c12)CCN3C (single isomer, unassigned) [Example 70, (E)-N-(2,6-difluoro-4-(9,10,12-trimethyl-7-(tri-fluoromethyl)-9,12,13,14-tetrahydroimidazo[4″,5″: 5′,6′]benzo[1′,2′:2,3]-azocino[4,5,6-hi]indol-izine-2-carbonyl)phenyl)-4-((4-methyltetrahydro-2H-pyran-4-yl)amino)but-2-enamide] |  |  | 9.85 nM | 2.49 nM | 
15 | Cc1nc2c3c(c(C(F)(F)F)cc2n1C)-c1cccn2c(C(=O)c4cc(F)c(NC(=O)/C=C/CNC5(C)COC5)c(F)c4)cc(c12)CCN3C (single isomer, unassigned) [Example 71, (E)-N-(2,6-difluoro-4-(9,10,12-trimethyl-7-(trifluoromethyl)-9,12,13,14-tetrahydroimidazo[4″,5″:5′,6′]benzo[1′,2′:2,3]azocino[4,5,6-hi]indolizine-2-carbonyl)phenyl)-4-((3-methyloxetan-3-yl)amino)but-2-enamide] |  |  | 20.2 nM | 9.6 nM | 
